# Laboratory results reported in paper PMC11189555, “Aryl amino acetamides prevent Plasmodium falciparum ring development via targeting the lipid-transfer protein PfSTART1” (Nature Communications, 2024).
# Values joined by “and” are separate entries in the source; they are usually repeats but may differ in a detail not shown here. Identical values can stand only once.
# Tests used:
# [1] = test system: processed PfSTART1 (proc1, proc2) in schizonts; assay: Processing of PfSTART1 along schizogony with egress inhibitors (Western blot densitometry); type: cell-based, Plasmodium falciparum; settings: for Normalised by EXP2: START full length / Normalised by EXP2: START processed 1 / Normalised by EXP2: START processed 2 / Normalised by EXP2 and full length: START processed 1 / Normalised by EXP2 and full length: START processed 2 / Raw densitometry: START full length / Raw densitometry: START processed 1 / Raw densitometry: START processed 2: biological replicates 1-5
# Method: Magnet-purified schizonts were harvested after a 4 h treatment with the following: DMSO (0.1%), 49c (10 nM), C1 (1.5 μM) or E64 (10 μM). Parasites were washed in ice-cold PBS + PI (centrifugation steps carried out at 4 °C at 3,000 g). Samples were resuspended in NRSB, sonicated, boiled 10 min at 80 °C and separated by electrophoresis as explained previously. The parasites used in this experiment were 3D7 transfected with p1.2-ABH(WT)-83-HA-glmS, i.e. parasites containing a recodonised version of PF3D7_0403800 within its genome. […]
# (DMSO). Schizonts were saponin -lysed. (E) Synchronised 3D7 schizonts were magnet-purified, stalled at different stages of egress: 4 h with 10 nM 49c (plasmepsin X inhibitor), 1.5 µM compound 1 (C1; PKG inhibitor), 10 µM E64, or allowed to progress (DMSO). Whole cells were harvested. PEXEL-cleaved, and the two further processed forms of PfSTART1 are indicated by solid and empty arrows respectively.
# (F) Densitometry of processed PfSTART1 (proc1 and proc2) was normalised to the corresponding PEXEL-cleaved PfSTART1. n=10 replicates (n=6 for the 49c treatment). Two-way ANOVA with Šídák's multiple comparisons test (compare each
# [2] = test system: P. berghei sporozoites invading HC-04 human liver cells; assay: In vitro liver invasion assay; type: cell-based, Plasmodium berghei; settings: Replicate 1 and 2
# Method: P. berghei ANKA constitutively expressing mCherry[82] was used for the in vitro liver stage invasion assay. Animals used for the generation of the sporozoites were 4- to 5-week-old male Swiss Webster mice and were purchased from the Monash Animal Services (Melbourne, Victoria, Australia) and housed at 22 to 25 °C on a 12 h light/dark cycle with 40-70% humidity at the School of Biosciences, The University of Melbourne, Australia. All animal experiments were in accordance with the Prevention of Cruelty to Animals Act 1986, the Prevention of Cruelty to Animals Regulations 2008, and National Health and Medical Research Council (2013) Australian code for the care and use of animals for scientific purposes. These experiments were reviewed and permitted by the Melbourne University Animal Ethics Committee (2015123).
# Infections of naïve Swiss mice were carried out by intraperitoneal (IP) inoculation obtained from a donor mouse between the first and fourth passages from cryopreserved stock. Parasitemia was monitored by Giemsa smear and exflagellation quantified 3 days post-infection. A. stephensi mosquitoes were allowed to feed on anaesthetised mice once the exflagellation rate was assessed between about 12 to 15 exflagellation events per 1 × 10^4 RBCs. Salivary glands of infected mosquitoes (days 17 to 24 post-infection) were isolated by dissection and parasites placed into RPMI-1640 media.
# This was performed essentially as described[83] with the minor variations outlined in the Supplementary Information. […]
# In vitro liver invasion assays. This was performed essentially as described16 with the following variations. In vitro human liver HCO4 cells (ATCC) were seeded at 1 × 10^5 cells/mL, grown for 24 h and then infected for 2 h with 30,000 Pb ANKA mCherry […]
# expressing sporozoites. Following fixation, an IFA with anti -CSP antibody (1:500) followed by anti-mouse Alexafluor 488 (1:1 ,000; Invitrogen, Carlsbad, CA, USA) labels uninvaded parasites. Fluorescence signal was assessed using an Olympus CKX41 epifluorescence microscope. […]
# Gametogenesis was then triggered by the addition of 10 μL ookinete medium (gametocyte culture medium supplemented with 100 μM xanthurenic acid and 0.27 µg/mL Cy3-labelled anti-Pfs25 antibody) to each well at room temperature. Plates were then cooled on a metal block at 4°C for four min to ensure even cooling and then stabilised for a further 4 min at 28°C. At 20 min post-induction, male gametogenesis was recorded in each well by automated brightfield microscopy using a x4 objective lens and 1.5x magnifier (x6 effective magnification). Afterward, plates were incubated in the dark at room temperature for 24 h and then female gametogenesis recorded in each well by automated fluorescence microscopy (anti-Pfs25-positive cells). All experiments were performed in quadruplicate with DMSO and cabamiquine (DDD107498)17 as negative and positive controls respectively. All data was evaluated in comparison to the positive and negative controls to calculate percentage inhibition of male and female gametocytes, and dose response analysis and IC50 calculation performed using GraphPad Prism. […]
# The pellet was subjected to five
# [3] = schizonts treated 4 h: 49c 10 nM, C1 1.5 μM, E64 10 μM, vs DMSO and other treatments
smiles,measurement,setting,value
CC(C)C[C@H](NC(=O)[C@H]1O[C@@H]1C(=O)O)C(=O)NCCCCN=C(N)N [E64],Normalised by EXP2: START full length,"[1]; BLOT AMA1, '+' lane",9.91E+01 and 2.44E+01 and 1.44E+02 and 6.49E+01 and 9.10E+02
same,Normalised by EXP2: START processed 1,"[1]; BLOT AMA1, '+' lane",5.50E+01 and 7.11E+00 and 4.58E+01 and 1.53E+01 and 3.44E+02
same,Normalised by EXP2: START processed 2,"[1]; BLOT AMA1, '+' lane",9.13E+01 and 1.13E+01 and 7.80E+01 and 1.03E+01 and 3.88E+02
same,Normalised by EXP2 and full length: START processed 1,"[1]; BLOT AMA1, '+' lane",5.54E+01 and 2.91E+01 and 3.18E+01 and 2.36E+01 and 3.78E+01
same,Normalised by EXP2 and full length: START processed 2,"[1]; BLOT AMA1, '+' lane",9.21E+01 and 4.63E+01 and 5.42E+01 and 1.59E+01 and 4.26E+01
same,Raw densitometry: START full length,"[1]; BLOT AMA1, '+' lane",9.54 and 2.49E+01 and 26.4 and 2.01E+01 and 2.02E+01
same,Raw densitometry: START processed 1,"[1]; BLOT AMA1, '+' lane",2.78 and 7.92E+00 and 6.24 and 7.59E+00 and 1.12E+01
same,Raw densitometry: START processed 2,"[1]; BLOT AMA1, '+' lane",4.42 and 1.35E+01 and 4.19 and 8.56E+00 and 1.86E+01
same,Normalised by EXP2: START full length,"[1]; BLOT AMA1, '-' lane",1.05E+02 and 2.53E+01 and 1.75E+02 and 7.60E+01 and 6.88E+02
same,Normalised by EXP2: START processed 1,"[1]; BLOT AMA1, '-' lane",6.93E+01 and 7.41E+00 and 5.19E+01 and 1.82E+01 and 2.72E+02
same,Normalised by EXP2: START processed 2,"[1]; BLOT AMA1, '-' lane",9.19E+01 and 9.39E+00 and 9.29E+01 and 7.65E+00 and 2.73E+02
same,Normalised by EXP2 and full length: START processed 1,"[1]; BLOT AMA1, '-' lane",6.61E+01 and 2.93E+01 and 2.98E+01 and 2.39E+01 and 3.96E+01
same,Normalised by EXP2 and full length: START processed 2,"[1]; BLOT AMA1, '-' lane",8.76E+01 and 3.72E+01 and 5.32E+01 and 1.01E+01 and 3.96E+01
same,Raw densitometry: START full length,"[1]; BLOT AMA1, '-' lane",8.29 and 2.80E+01 and 29.3 and 1.80E+01 and 2.42E+01
same,Raw densitometry: START processed 1,"[1]; BLOT AMA1, '-' lane",2.43 and 8.33E+00 and 7.01 and 7.12E+00 and 1.60E+01
same,Raw densitometry: START processed 2,"[1]; BLOT AMA1, '-' lane",3.08 and 1.49E+01 and 2.95 and 7.13E+00 and 2.12E+01
same,Normalised by EXP2: START full length,"[1]; BLOT Rh5, '+' lane",7.41E+01 and 1.24E+02 and 2.65E+01 and 1.82E+02 and 1.65E+02
same,Normalised by EXP2: START processed 1,"[1]; BLOT Rh5, '+' lane",5.05E+01 and 4.02E+01 and 7.30E+00 and 3.75E+01 and 7.40E+01
same,Normalised by EXP2: START processed 2,"[1]; BLOT Rh5, '+' lane",7.26E+01 and 3.45E+01 and 1.15E+01 and 3.53E+01 and 8.50E+01
same,Normalised by EXP2 and full length: START processed 1,"[1]; BLOT Rh5, '+' lane",6.81E+01 and 3.26E+01 and 2.75E+01 and 2.05E+01 and 4.47E+01
same,Normalised by EXP2 and full length: START processed 2,"[1]; BLOT Rh5, '+' lane",9.79E+01 and 2.79E+01 and 4.33E+01 and 1.93E+01 and 5.14E+01
same,Raw densitometry: START full length,"[1]; BLOT Rh5, '+' lane",12.9 and 1.34E+01 and 3.87E+01 and 2.57E+01 and 1.42E+01
same,Raw densitometry: START processed 1,"[1]; BLOT Rh5, '+' lane",4.2 and 3.69E+00 and 7.95E+00 and 1.15E+01 and 9.67E+00
same,Raw densitometry: START processed 2,"[1]; BLOT Rh5, '+' lane",3.6 and 5.80E+00 and 7.48E+00 and 1.32E+01 and 1.39E+01
same,Normalised by EXP2: START full length,"[1]; BLOT Rh5, '-' lane",8.04E+01 and 1.20E+02 and 3.28E+01 and 2.15E+02 and 2.08E+02
same,Normalised by EXP2: START processed 1,"[1]; BLOT Rh5, '-' lane",5.15E+01 and 3.77E+01 and 7.46E+00 and 4.92E+01 and 7.28E+01
same,Normalised by EXP2: START processed 2,"[1]; BLOT Rh5, '-' lane",6.74E+01 and 3.23E+01 and 1.26E+01 and 2.81E+01 and 6.72E+01
same,Normalised by EXP2 and full length: START processed 1,"[1]; BLOT Rh5, '-' lane",6.41E+01 and 3.14E+01 and 2.27E+01 and 2.28E+01 and 3.49E+01
same,Normalised by EXP2 and full length: START processed 2,"[1]; BLOT Rh5, '-' lane",8.38E+01 and 2.69E+01 and 3.85E+01 and 1.30E+01 and 3.22E+01
same,Raw densitometry: START full length,"[1]; BLOT Rh5, '-' lane",9.62 and 1.50E+01 and 4.00E+01 and 3.32E+01 and 1.67E+01
same,Raw densitometry: START processed 1,"[1]; BLOT Rh5, '-' lane",3.02 and 3.41E+00 and 9.14E+00 and 1.16E+01 and 1.07E+01
same,Raw densitometry: START processed 2,"[1]; BLOT Rh5, '-' lane",2.59 and 5.78E+00 and 5.21E+00 and 1.07E+01 and 1.40E+01
same,level of PfSTART1proc1 normalised to PEXEL-cleaved PfSTART1,[1]; [3],contained most of both processed bands
same,level of PfSTART1proc2 normalised to PEXEL-cleaved PfSTART1,[1]; [3],significant enrichment in PfSTART1proc2
"C=C1[C@@H](C)[C@H]2[C@H](Cc3ccccc3)NC(=O)[C@]23[C@H](OC(C)=O)/C=C/[C@@](C)(O)C(=O)[C@@H](C)C/C=C/[C@H]3[C@@H]1O [cytD, cytochalasin D, reference compound]",Liver stage invasion assay: in,[2]; count of sporozoites inside cells,2
same,Liver stage invasion assay: out,[2]; count of sporozoites outside cells,118 and 305
same,Liver stage invasion assay: ratio,[2]; in relative to in + out,1.667 and 0.6515
